Patent US20260285850A1, “SUBSTITUTED OXAZOLIDINONES AND IMIDAZOLINONES AS HERBICIDES” (FMC CORPORATION, priority 2023, published 2026)

Experiments:
Assay type in all cases: in vivo
[1] = system: green foxtail (Setaria viridis); test: Test A preemergence soil spray, visual injury rating 0-100; settings: 10 days
Procedure, shortened: (§1)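 Plants were grown in a loam soil-sand blend and treated with test chemical in a non-phytotoxic solvent mixture containing surfactant, either sprayed on soil preemergence or applied postemergence to 2-10 cm plants. After 10 days in a greenhouse, injury was scored visually against untreated controls, 0 meaning no effect and 100 complete control.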

[2] = system: oat, wild (wild oat, Avena fatua); test: as above; settings: 10 days
Procedure, shortened: as §1

[3] = system: ragweed (common ragweed, Ambrosia artemisiifolia); test: as above; settings: 10 days
Procedure, shortened: as §1

[4] = system: kochia (Bassia scoparia); test: as above; settings: 10 days
Procedure, shortened: as §1

[5] = system: corn (Zea mays); test: as above; settings: 10 days
Procedure, shortened: as §1

[6] = system: ryegrass, Italian (italian ryegrass, Lolium multiflorum); test: as above; settings: 10 days
Procedure, shortened: as §1

[7] = system: wheat (Triticum aestivum); test: as above; settings: 10 days
Procedure, shortened: as §1

[8] = system: palmer (palmer amaranth, palmer pigweed, Amaranthus palmeri); test: as above; settings: 10 days
Procedure, shortened: as §1

[9] = system: soybean (Glycine max); test: as above; settings: 10 days
Procedure, shortened: as §1

[10] = system: barnyardgrass (Echinochloa crus-galli); test: as above; settings: 10 days
Procedure, shortened: as §1

[11] = system: blackgrass (Alopecurus myosuroides); test: as above; settings: 10 days
Procedure, shortened: as §1

[12] = system: green foxtail (Setaria viridis); test: Test A postemergence application, visual injury rating 0-100
Procedure, shortened: as §1

[13] = system: oat, wild (wild oat, Avena fatua); test: as above
Procedure, shortened: as §1

[14] = system: ragweed (common ragweed, Ambrosia artemisiifolia); test: as above
Procedure, shortened: as §1

[15] = system: kochia (Bassia scoparia); test: as above
Procedure, shortened: as §1

[16] = system: corn (Zea mays); test: as above
Procedure, shortened: as §1

[17] = system: ryegrass, Italian (italian ryegrass, Lolium multiflorum); test: as above
Procedure, shortened: as §1

[18] = system: wheat (Triticum aestivum); test: as above
Procedure, shortened: as §1

[19] = system: horseweed (Erigeron canadensis); test: as above
Procedure, shortened: as §1

[20] = system: palmer (palmer amaranth, palmer pigweed, Amaranthus palmeri); test: as above
Procedure, shortened: as §1

[21] = system: soybean (Glycine max); test: as above
Procedure, shortened: as §1

[22] = system: barnyardgrass (Echinochloa crus-galli); test: as above
Procedure, shortened: as §1

[23] = system: galium (catchweed bedstraw, Galium aparine); test: as above
Procedure, shortened: as §1

[24] = system: blackgrass (Alopecurus myosuroides); test: as above
Procedure, shortened: as §1

[25] = system: barnyardgrass (Echinochloa crusgalli); test: Test B flooded paddy test, visual plant response rating 0-100; settings: 250 g ai/ha, Flood, applied to paddy water, evaluated after 13 days
Procedure, shortened: (§2)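 In this flooded assay, 2-leaf seedlings received compound through the water layer, kept at 3 cm over the soil. Plants were held 13 days in a greenhouse and then visually compared with control pots.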

[26] = system: rice (Oryza sativa); test: as above; settings: 250 g ai/ha, Flood, applied to paddy water, evaluated after 13 days
Procedure, shortened: as §2

[27] = system: ducksalad (Heteranthera limosa); test: as above; settings: 250 g ai/ha, Flood, applied to paddy water, evaluated after 13 days
Procedure, shortened: as §2

[28] = system: sedge, umbrella (small-flower umbrella sedge, Cyperus difformis); test: as above; settings: 250 g ai/ha, Flood, applied to paddy water, evaluated after 13 days
Procedure, shortened: as §2

[29] = 62 g ai/ha, 0 = no effect, 100 = complete control
[30] = 62 g ai/ha, postemergence, 10 days, 0 = no effect, 100 = complete control
[31] = Postemergence, 16 g ai/ha, greenhouse 10 days, 0 no effect, 100 complete control

## CSCCOC(=O)C1CC(NC(=O)C2(C)CN(c3cc(F)cc(F)c3)C(=O)O2)C1 (racemic) [Compound 120]
[1]; 16 g ai/ha, 0 to 100 scale
  Foxtail, Green plant response rating: 20
[1]; [29]
  Foxtail, Green plant response rating (0-100): 20
[2]; 16 g ai/ha, 0 to 100 scale
  Oat, Wild plant response rating: 90
[2]; [29]
  Oat, Wild plant response rating (0-100): 90
[3]; 16 g ai/ha, 0 to 100 scale
  Ragweed plant response rating: 10
[3]; [29]
  Ragweed plant response rating (0-100): 0
[4]; 16 g ai/ha, 0 to 100 scale
  Kochia plant response rating: 0
[4]; [29]
  Kochia plant response rating (0-100): 30
[5]; 16 g ai/ha, 0 to 100 scale
  Corn plant response rating: 0
[5]; [29]
  Corn plant response rating (0-100): 80
[6]; 16 g ai/ha, 0 to 100 scale
  Ryegrass, Italian plant response rating: 10
[6]; [29]
  Ryegrass, Italian plant response rating (0-100): 80
[7]; 16 g ai/ha, 0 to 100 scale
  Wheat plant response rating: 20
[7]; [29]
  Wheat plant response rating (0-100): 70
[8]; 16 g ai/ha, 0 to 100 scale
  Pigweed, Palmer plant response rating: 0
[8]; [29]
  Pigweed, Palmer plant response rating (0-100): 20
[9]; 16 g ai/ha, 0 to 100 scale
  Soybean plant response rating: 0
[9]; [29]
  Soybean plant response rating (0-100): 0
[10]; 16 g ai/ha, 0 to 100 scale
  Barnyardgrass plant response rating: 0
[10]; [29]
  Barnyardgrass plant response rating (0-100): 60
[11]; 16 g ai/ha, 0 to 100 scale
  Blackgrass plant response rating: 40
[11]; [29]
  Blackgrass plant response rating (0-100): 80
[12]; [30]
  Foxtail, Green plant response rating (0-100): 90
[12]; [31]
  Foxtail, Green plant response rating (0 to 100 scale): 60
[13]; [30]
  Oat, Wild plant response rating (0-100): 80
[13]; [31]
  Oat, Wild plant response rating (0 to 100 scale): 30
[14]; [30]
  Ragweed plant response rating (0-100): 40
[14]; [31]
  Ragweed plant response rating (0 to 100 scale): 20
[15]; [30]
  Kochia plant response rating (0-100): 80
[15]; [31]
  Kochia plant response rating (0 to 100 scale): 0
[16]; [30]
  Corn plant response rating (0-100): 100
[16]; [31]
  Corn plant response rating (0 to 100 scale): 90
[17]; [30]
  Ryegrass, Italian plant response rating (0-100): 70
[17]; [31]
  Ryegrass, Italian plant response rating (0 to 100 scale): 10
[18]; [30]
  Wheat plant response rating (0-100): 90
[18]; [31]
  Wheat plant response rating (0 to 100 scale): 90
[19]; [30]
  Horseweed plant response rating (0-100): 10
[19]; [31]
  Horseweed plant response rating (0 to 100 scale): 10
[20]; [30]
  Pigweed, Palmer plant response rating (0-100): 70
[20]; [31]
  Pigweed, Palmer plant response rating (0 to 100 scale): 10
[21]; [30]
  Soybean plant response rating (0-100): 80
[21]; [31]
  Soybean plant response rating (0 to 100 scale): 50
[22]; [30]
  Barnyardgrass plant response rating (0-100): 100
[22]; [31]
  Barnyardgrass plant response rating (0 to 100 scale): 50
[23]; [30]
  Galium plant response rating (0-100): 70
[23]; [31]
  Galium plant response rating (0 to 100 scale): 20
[24]; [30]
  Blackgrass plant response rating (0-100): 90
[24]; [31]
  Blackgrass plant response rating (0 to 100 scale): 70
[25]
  Plant response rating, Barnyardgrass (0 to 100 scale, 0 is no effect and 100 is complete control): 0
[26]
  Plant response rating, Rice (0 to 100 scale, 0 is no effect and 100 is complete control): 0
[27]
  Plant response rating, Ducksalad (0 to 100 scale, 0 is no effect and 100 is complete control): 0
[28]
  Plant response rating, Sedge, Umbrella (0 to 100 scale, 0 is no effect and 100 is complete control): 0
